Test results reported in article PMC10700139 (Nature, 2023).
Where “and” joins values, the source holds several entries; their conditions need not be identical. Equal values may be shown once.

Tests used:
PtCAL-1a/PtCAL-2a = target: T1, PtCAL-1a/PtCAL-2a (Phlegmariurus tetrastichus, UniProt P0DXL1+P0DXL3); assay: In vitro reactions with apoplastic PtCAL-1a/PtCAL-2a (formation of 9, decarboxylation of 3, Zn chelator); type: biochemical
T1 construct: N-terminal signal peptide[58], which would be cleaved during processing and trafficking of these proteins; made in house; host or cells: Nicotiana benthamiana leaves (Agrobacterium transient co-expression, pEAQ-HT), concentrated apoplast extract
T1 sequence (P0DXL1 22-280): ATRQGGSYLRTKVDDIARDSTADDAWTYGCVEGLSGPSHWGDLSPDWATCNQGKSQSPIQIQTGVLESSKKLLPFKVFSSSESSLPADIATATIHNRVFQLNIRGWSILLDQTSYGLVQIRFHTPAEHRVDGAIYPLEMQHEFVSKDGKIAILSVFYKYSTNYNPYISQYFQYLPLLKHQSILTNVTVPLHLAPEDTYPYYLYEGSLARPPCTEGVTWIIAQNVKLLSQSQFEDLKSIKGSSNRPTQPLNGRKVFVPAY
T1 sequence (P0DXL3 24-284): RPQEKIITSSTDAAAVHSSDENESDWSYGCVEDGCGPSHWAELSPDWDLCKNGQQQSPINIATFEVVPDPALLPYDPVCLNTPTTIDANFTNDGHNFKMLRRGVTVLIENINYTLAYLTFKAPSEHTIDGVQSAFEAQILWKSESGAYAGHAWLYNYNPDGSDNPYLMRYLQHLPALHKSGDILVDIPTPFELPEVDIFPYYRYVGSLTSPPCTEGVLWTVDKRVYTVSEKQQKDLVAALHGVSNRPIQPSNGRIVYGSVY
Excerpt: The three CAL proteins identified in this study have predicted N-terminal signal peptides, which were identified using the TargetP-2.0 server (https://services.healthtech.dtu.dk/service.php?TargetP-2.0)[58]. […] To assess this possibility, CAL genes with or without C-terminal 6xHis tags were transiently expressed in N. benthamiana, as described above. Each CAL gene was expressed individually; also, PtCAL-1a and PtCAL-2a were transiently co-expressed in the same leaf because we had found them to cofunction in Lycopodium alkaloid biosynthesis. At 4 days after Agrobacterium infiltration, apoplast protein extracts were isolated using the infiltration–centrifugation method, much as previously described. Two leaves per reaction were excised from the plant and submerged in ice-cold apoplast extraction buffer (100 mM MES, 300 mM NaCl, pH 5.5) in an open-capped 50 ml Falcon tube and these tubes were placed in a plastic vacuum chamber attached to a Welch Model 2025 vacuum pump. The chamber was brought down to full vacuum and after 2 min at this pressure, the vacuum was slowly released to allow for buffer to infiltrate the leaf apoplastic space. Buffer-infiltrated leaves were carefully removed from the Falcon tubes, blotted dry with paper towels and were then rolled into Parafilm and placed in a plungerless 5 ml plastic syringe. The syringe was placed in a 15 ml Falcon tube and this was then centrifuged at 1,000g and 4 °C for 10 min to collect apoplast extract. The resulting extract was centrifuged at 10,000g and 4 °C for 15 min to pellet any larger cellular debris and the supernatant was concentrated using an Amicon Ultra-4 Centrifugal Filter Unit (10 kDA MWCO, MilliporeSigma UFC501024). Protein concentrations were measured using the BIO-RAD Protein Assay or Bradford assay (Abcam 119216) and adjusted with apoplast extraction buffer to a final concentration between 0.5 and 1.5 mg ml^−1. Aliquots of the extracts were snap frozen in liquid nitrogen and stored at −80 °C.
Reactions with CAL-enriched apoplast were routinely performed in low-pH potassium phosphate buffer (50 mM potassium phosphate, 100 mM NaCl, pH 5.9) at a volume of 20 µl. For PtCAL-1a/PtCAL-2a, these reactions contained approximately 1.4 µg of apoplast protein for each CAL (final concentration of 0.07 µg µl^−1). Control reactions used apoplast from leaves expressing only one CAL or with apoplast generated from GFP-expression N. benthamiana leaves. The requisite substrates for this reaction were generated through the activities of in vitro PtPIKS-1 and PtCYP782C1 enzyme reactions. […]. To generate 3 and 4 as potential substrates, 1 µg of previously purified PtPIKS-1 enzyme[23] and 150 µM 1 and 300 µM malonyl-CoA were added directly to the CAL reaction mixtures. After thorough mixing, reactions were incubated at room temperature. An alternative route for producing 3 and 4 independently of thioester intermediates was achieved by mixing stocks of 1 (10 mM in water) and 2 (10 mM in water; always prepared fresh to minimize compound decomposition) in equal proportion, followed by incubation at room temp for 1–2 h, as these two substrates can non-enzymatically condense to yield 3 (which can spontaneously decarboxylate to produce 4). A 2 µl aliquot of this mixture was then added as a component of the PtCAL-1a/PtCAL-2a enzyme reaction (20 µl total reaction volume) in addition to the PtCYP782C1 microsomal reaction mixture. After predesignated incubation times, reactions were quenched by diluting tenfold into ACN with 0.1% formic acid.
To evaluate the potential decarboxylation of β-keto acid substrates by PtCAL-1/PtCAL-2 and PtCAL-3, only 3 or 2, respectively, were added as substrate. PtCAL-1/PtCAL-2 reactions were quenched by diluting aliquots tenfold into ACN with 0.1% formic acid and were subsequently analysed through HILIC LC–MS. PtCAL-3 reactions were quenched by mixing aliquots with an equal volume of water with 0.2% formic acid and were then analysed through C18 LC–MS. […]

[1] = Stability of PtCYP782C1 products in leaf extract incubated at room temperature; type: physicochemical; conditions: samples incubated at room temperature for 1 h
Experimental: The production of (2S, 4S)-6 and (2S, 4R)-6 was consistent with our hypothesis for elimination-mediated formation of the proposed diene (8). Because formation of 8 would require oxidation of the O-acetylated substrate(s), we next screened CYP and 2OGD family enzymes found in cluster131. […] This coincided with the presence of two new compounds: one that corresponded to a single oxidation (desaturation) of the O-acetylated substrate (7, [M + H]^+ = m/z 184.1332, retention time 1.86 min), as well as another which shared the same exact mass as 8 ([M + H]^+ = m/z 124.1121, retention time 1.93 min). […] Although this limited our ability to access authentic standards, tandem mass spectrometry (MS/MS or MS^2) analysis supported the proposed structures of 7 and 8 and ultraviolet (UV) analysis of 8 corroborated the presence of the predicted α,β-unsaturated imine in this molecule[34] (Extended Data Fig. 2c,d). […]
Extended Data Fig. 2 Functional characterization of PtCYP782C1. a) Transient expression of PtCYP782C1 with a biosynthetic module for the production of 6 diastereomers (PtLDC, PtCAO, PtPIKS, PtSDR-1 or PtSDR-2 and PtACT-1) in N. benthamiana. […] Product abundance is calculated as the integration of the peak generated in the EIC for each mass ion. g) Relative activity of PtCYP782C1 microsomes at varying pH, as determined via production of both 7 and 8. […]

several insect species = tested on: several insect species; design: method as in PMID 11804518; conditions: cited from earlier work

## O=C(O)CC(=O)CC1CCCCN1 (centres unmarked) [compound 3, 4-(2-piperidyl)acetoacetic acid]
PtCAL-1a/PtCAL-2a; PtCAL-1a/PtCAL-2a +3 (ED 4h)
  ratio of 4 ion abundance (m/z 142.1226) to that of 3 (m/z 186.1125): 31.4694 and 27.1428 and 38.6295
PtCAL-1a/PtCAL-2a; PtCAL-1a/PtCAL-2a +3, 0.25 hrs (ED 4g)
  ratio of 4 ion abundance (m/z 142.1226) to that of 3 (m/z 186.1125): 66.6374 and 57.9149 and 54.0594
PtCAL-1a/PtCAL-2a; PtCAL-1a/PtCAL-2a +3, 0.5 hrs (ED 4g)
  ratio of 4 ion abundance (m/z 142.1226) to that of 3 (m/z 186.1125): 59.9271 and 67.8727 and 55.7877
PtCAL-1a/PtCAL-2a; PtCAL-1a/PtCAL-2a +3, 1 hrs (ED 4g)
  ratio of 4 ion abundance (m/z 142.1226) to that of 3 (m/z 186.1125): 70.6508 and 59.4497 and 51.4084
PtCAL-1a/PtCAL-2a; PtCAL-1a/PtCAL-2a +3, 2 hrs (ED 4g)
  ratio of 4 ion abundance (m/z 142.1226) to that of 3 (m/z 186.1125): 57.1082 and 53.747 and 49.4186

## CC(=O)OC(C)CC1=NCCCC1 (centres unmarked) [compound 7]
[1]
  stability of compound in sample: almost entirely lost

## C/C=C/C1=NCCCC1 [compound 8]
[1]
  stability of compound in sample: almost entirely lost

## C/C=C1\[C@H]2C=C(C)C[C@]1(N)c1ccc(=O)[nH]c1C2 [compound 17, huperzine A]
Several insect species
  antifeedant activity: antifeedant activity
